Target: PD-1/PD-L1 (Homo sapiens (Human), UniProt Q9NZQ7)
Experiment: PD-1/PD-L1 binding assay (HTRF)
Summary of the method: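 HTRF read-out (665/620 nm) after 60 min at 25 °C with 1 nM Eu anti-human IgG and 20 nM APC anti-His. Beforehand, inhibitors were preincubated 40 min with Fc-PD-1 (25-167, […] as listed) and His-PD-L1 (19-238, 10 nM) in PBS pH 7.4 with Tween-20, BSA, 1% DMSO; IC50 from log-concentration curve.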

Chain of PD-1/PD-L1 (Q9NZQ7 19-238): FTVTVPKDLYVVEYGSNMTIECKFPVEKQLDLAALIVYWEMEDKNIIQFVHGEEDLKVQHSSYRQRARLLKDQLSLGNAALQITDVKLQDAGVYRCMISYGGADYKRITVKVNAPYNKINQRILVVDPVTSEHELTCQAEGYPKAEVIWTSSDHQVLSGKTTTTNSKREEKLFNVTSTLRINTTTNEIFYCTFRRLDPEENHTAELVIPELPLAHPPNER

| Structure (SMILES) | IC50 [nM] |
| --- | --- |
| C[C@H](O)CN1CCc2c(nc(C(=O)Nc3cccc(-c4cccc(NC(=O)c5nc6c(n5C)CCN(C[C@H]5CC[C@@H](C(=O)O)CC5)C6)c4Cl)c3Cl)n2C)C1 [Example 75, cis-4-((2-((2,2′-dichloro-3′-(5-((S)-2-hydroxypropyl)-1-methyl-4,5,6,7-tetrahydro-1H-imidazo[4,5-c]pyridine-2-carboxamido)-[1,1′-biphenyl]-3-yl)carbamoyl)-1-methyl-1,4,6,7-tetrahydro-5H-imidazo[4,5-c]pyridin-5-yl)methyl)cyclohexane-1-carboxylic acid] | ≤ 10 |
| C[C@@H](O)CN1CCc2c(nc(C(=O)Nc3cccc(-c4cccc(NC(=O)c5nc6c(n5C)CCN(C[C@H]5CC[C@@H](C(=O)O)CC5)C6)c4Cl)c3Cl)n2C)C1 [Example 76, cis-4-((2-((2,2′-dichloro-3′-(5-((R)-2-hydroxypropyl)-1-methyl-4,5,6,7-tetrahydro-1H-imidazo[4,5-c]pyridine-2-carboxamido)-[1,1′-biphenyl]-3-yl)carbamoyl)-1-methyl-1,4,6,7-tetrahydro-5H-imidazo[4,5-c]pyridin-5-yl)methyl)cyclohexane-1-carboxylic acid] | ≤ 10 |
| CN1CCc2c(nc(C(=O)Nc3cccc(-c4cccc(NC(=O)c5nc6c(n5C)CCN(C5CCC(C)(C(=O)O)CC5)C6)c4Cl)c3Cl)n2C)C1 (stereo not shown) [Example 80, 4-(2-((2,2′-dichloro-3′-(1,5-dimethyl-4,5,6,7-tetrahydro-1H-imidazo[4,5-c]pyridine-2-carboxamido)-[1,1′-biphenyl]-3-yl)carbamoyl)-1-methyl-1,4,6,7-tetrahydro-5H-imidazo[4,5-c]pyridin-5-yl)-1-methylcyclohexane-1-carboxylic acid] | ≤ 10 |
| Cn1c(C(=O)Nc2cccc(-c3cccc(NC(=O)c4nc5c(n4C)CCN(CC[C@H]4CC[C@H](C(=O)O)CC4)C5)c3Cl)c2Cl)nc2c1CCNC2 [Example 85, trans-4-(2-(2-((2,2′-dichloro-3′-(1-methyl-4,5,6,7-tetrahydro-1H-imidazo[4,5-c]pyridine-2-carboxamido)-[1,1′-biphenyl]-3-yl)carbamoyl)-1-methyl-1,4,6,7-tetrahydro-5H-imidazo[4,5-c]pyridin-5-yl)ethyl)cyclohexane-1-carboxylic acid] | ≤ 10 |
| Cn1c(C(=O)Nc2cccc(-c3cccc(NC(=O)c4nc5c(n4C)CCN(CC4CC4)C5)c3Cl)c2Cl)nc2c1CCN(CC[C@H]1CC[C@H](C(=O)O)CC1)C2 [Example 87, trans-4-(2-(2-((2,2′-dichloro-3′-(5-(cyclopropylmethyl)-1-methyl-4,5,6,7-tetrahydro-1H-imidazo[4,5-c]pyridine-2-carboxamido)-[1,1′-biphenyl]-3-yl)carbamoyl)-1-methyl-1,4,6,7-tetrahydro-5H-imidazo[4,5-c]pyridin-5-yl)ethyl)cyclohexane-1-carboxylic acid] | ≤ 10 |
| CC(C)N1CCc2c(nc(C(=O)Nc3cccc(-c4cccc(NC(=O)c5nc6c(n5C)CCN(CC[C@H]5CC[C@H](C(=O)O)CC5)C6)c4Cl)c3Cl)n2C)C1 [Example 88, trans-4-(2-(2-((2,2′-dichloro-3′-(5-isopropyl-1-methyl-4,5,6,7-tetrahydro-1H-imidazo[4,5-c]pyridine-2-carboxamido)-[1,1′-biphenyl]-3-yl)carbamoyl)-1-methyl-1,4,6,7-tetrahydro-5H-imidazo[4,5-c]pyridin-5-yl)ethyl)cyclohexane-1-carboxylic acid] | ≤ 10 |
| Cn1c(C(=O)Nc2cccc(-c3cccc(NC(=O)c4nc5c(n4C)CCN(C4CCC4)C5)c3Cl)c2Cl)nc2c1CCN(CC[C@H]1CC[C@H](C(=O)O)CC1)C2 [Example 89, trans-4-(2-(2-((2,2′-dichloro-3′-(5-cyclobutyl-1-methyl-4,5,6,7-tetrahydro-1H-imidazo[4,5-c]pyridine-2-carboxamido)-[1,1′-biphenyl]-3-yl)carbamoyl)-1-methyl-1,4,6,7-tetrahydro-5H-imidazo[4,5-c]pyridin-5-yl)ethyl)cyclohexane-1-carboxylic acid] | ≤ 10 |

The next lines start with the values.

| IC50 [nM] | Structure (SMILES) |
| --- | --- |
| ≤ 10 | CN1CCc2c(nc(C(=O)Nc3cccc(-c4cccc(NC(=O)c5nc6c(n5C)CCN(CCc5ccc(C(=O)O)cc5)C6)c4Cl)c3Cl)n2C)C1 [Example 78, 4-(2-(2-((2,2′-dichloro-3′-(1,5-dimethyl-4,5,6,7-tetrahydro-1H-imidazo[4,5-c]pyridine-2-carboxamido)-[1,1′-biphenyl]-3-yl)carbamoyl)-1-methyl-1,4,6,7-tetrahydro-5H-imidazo[4,5-c]pyridin-5-yl)ethyl)benzoic acid] |
| ≤ 10 | CN1CCc2c(nc(C(=O)Nc3cccc(-c4cccc(NC(=O)c5nc6c(n5C)CCN(C5CCC(C(=O)O)CC5)C6)c4Cl)c3Cl)n2C)C1 (stereo not shown) [Example 79, 4-(2-((2,2′-dichloro-3′-(1,5-dimethyl-4,5,6,7-tetrahydro-1H-imidazo[4,5-c]pyridine-2-carboxamido)-[1,1′-biphenyl]-3-yl)carbamoyl)-1-methyl-1,4,6,7-tetrahydro-5H-imidazo[4,5-c]pyridin-5-yl)cyclohexane-1-carboxylic acid] |
| ≤ 10 | CN1CCc2c(nc(C(=O)Nc3cccc(-c4cccc(NC(=O)c5nc6c(n5C)CCN(CC57CCC(C(=O)O)(CC5)CC7)C6)c4Cl)c3Cl)n2C)C1 [Example 81, 4-((2-((2,2′-dichloro-3′-(1,5-dimethyl-4,5,6,7-tetrahydro-1H-imidazo[4,5-c]pyridine-2-carboxamido)-[1,1′-biphenyl]-3-yl)carbamoyl)-1-methyl-1,4,6,7-tetrahydro-5H-imidazo[4,5-c]pyridin-5-yl)methyl)bicyclo[2.2.2]octane-1-carboxylic acid] |
| ≤ 10 | CCC1(C(=O)O)CCC(N2CCc3c(nc(C(=O)Nc4cccc(-c5cccc(NC(=O)c6nc7c(n6C)CCN(C)C7)c5Cl)c4Cl)n3C)C2)CC1 (stereo not shown) [Example 83, 4-(2-((2,2′-dichloro-3′-(1,5-dimethyl-4,5,6,7-tetrahydro-1H-imidazo[4,5-c]pyridine-2-carboxamido)-[1,1′-biphenyl]-3-yl)carbamoyl)-1-methyl-1,4,6,7-tetrahydro-5H-imidazo[4,5-c]pyridin-5-yl)-1-ethylcyclohexane-1-carboxylic acid] |
| ≤ 10 | CN1CCc2c(nc(C(=O)Nc3cccc(-c4cccc(NC(=O)c5nc6c(n5C)CCN(CC57CCC(C(=O)O)(CC5)C7)C6)c4Cl)c3Cl)n2C)C1 [Example 84, 4-((2-((2,2′-dichloro-3′-(1,5-dimethyl-4,5,6,7-tetrahydro-1H-imidazo[4,5-c]pyridine-2-carboxamido)-[1,1′-biphenyl]-3-yl)carbamoyl)-1-methyl-1,4,6,7-tetrahydro-5H-imidazo[4,5-c]pyridin-5-yl)methyl)bicyclo[2.2.1]heptane-1-carboxylic acid] |
| ≤ 10 | CCN1CCc2c(nc(C(=O)Nc3cccc(-c4cccc(NC(=O)c5nc6c(n5C)CCN(CC[C@H]5CC[C@H](C(=O)O)CC5)C6)c4Cl)c3Cl)n2C)C1 [Example 86, trans-4-(2-(2-((2,2′-dichloro-3′-(5-ethyl-1-methyl-4,5,6,7-tetrahydro-1H-imidazo[4,5-c]pyridine-2-carboxamido)-[1,1′-biphenyl]-3-yl)carbamoyl)-1-methyl-1,4,6,7-tetrahydro-5H-imidazo[4,5-c]pyridin-5-yl)ethyl)cyclohexane-1-carboxylic acid] |

— patent US10806785B2, “Immunomodulator compounds and methods of use” (Incyte Corporation, priority 2016, dated 2020)
